Results reported in ChEMBL document CHEMBL1201862, “PubChem BioAssay data set” (2004).
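How tested: cells in 96-well plates exposed to compound for 48 hours at five concentrations. Abbreviation: GI50, concentration required for 50% inhibition of growth.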 Active and inactive are the calls of the source. No stated cut-off is given here; in the data, active = GI50 up to about 1.1 µM and inactive = higher.

Columns and labels:
Experiment in all cases: inhibition of tumour cell growth, NCI panel, 48 h
BT-549 = test system: BT-549
XF498 = test system: XF498
HOP-18 = test system: HOP-18
KM-20L2 = test system: KM-20L2
DMS-114 = test system: DMS-114
SNB-78 = test system: SNB-78
DMS-273 = test system: DMS-273
M19-MEL = test system: M19-MEL
RXF 631 = test system: RXF 631

SMILES	GI50 (BT-549)	GI50 (HOP-18)	GI50 (KM-20L2)	GI50 (DMS-273)	GI50 (M19-MEL)	also measured
OCCN(C1=NCCN1)/[N+](=C/c1ccccc1O)[CH-]c1ccccc1O	37.8 µM (inactive)	–	–	–	–	–
O=c1cc(-c2ccccc2)oc2ccc(Cl)cc12 [6-CHLOROFLAVONE]	> 100 µM (inactive)	> 100 µM (inactive)	> 100 µM (inactive)	72.9 µM (inactive)	> 100 µM (inactive)	GI50 (XF498): 37.2 µM (inactive); GI50 (DMS-114): 49.9 µM (inactive); GI50 (SNB-78): 48.2 µM (inactive)
OCc1ccc2c(c1)CC1(C2)Cc2cc3c(cc2C1)CCC3	2.81 µM (inactive)	–	–	–	–	–
O=[N+]([O-])c1cc(Cl)cnc1Br	3.18 µM (inactive)	–	–	–	–	–
OC1(c2ccccc2)CC2CCC(C1)N2CCc1ccccc1 (centres undefined)	40.1 µM (inactive)	–	–	–	–	–
COc1ccc(NCc2cc(OC)c(OC)c(OC)c2)cc1	–	–	0.228 µM (active)	0.143 µM (active)	–	–
Nc1nc(SCCc2ccccc2)c2nc[nH]c2n1	47.3 µM (inactive)	–	–	–	–	–
O=c1oc2ccccc2c(O)c1C(C/C(CCN1CCCC1)=N\Nc1ccccc1)c1ccccc1 (centres undefined)	–	91.8 µM (inactive)	> 100 µM (inactive)	–	61.2 µM (inactive)	GI50 (XF498): > 100 µM (inactive); GI50 (SNB-78): > 100 µM (inactive)
O=C(O/N=C1/CCC/C1=C\c1ccccc1)c1ccc(Cl)c(Cl)c1	–	> 100 µM (inactive)	> 100 µM (inactive)	> 100 µM (inactive)	> 100 µM (inactive)	GI50 (RXF 631): > 100 µM (inactive); GI50 (DMS-114): > 100 µM (inactive); GI50 (SNB-78): > 100 µM (inactive)
COC(=O)C1(CCC(C)=O)CCCCCC1=O (centres undefined)	> 100 µM (inactive)	–	–	–	–	–
CCN1CCC(O)(c2ccc(C)cc2)C(C(=O)c2ccc(C)cc2)C1 (centres undefined)	–	22.1 µM (inactive)	13 µM (inactive)	19.8 µM (inactive)	> 47.3 µM (inactive)	GI50 (XF498): 18 µM (inactive); GI50 (SNB-78): > 51.8 µM (inactive)
Nc1nc(CCl)nc(Nc2ccccc2)n1	–	–	18.6 µM (inactive)	4.16 µM (inactive)	29.4 µM (inactive)	GI50 (DMS-114): 18.4 µM (inactive)
CC#CS(=O)(=O)c1ccccc1	8.45 µM (inactive)	–	–	–	–	–
O=[N+]([O-])c1ccccc1S(=O)(=O)c1cccc2c1NCCC2	32.1 µM (inactive)	–	–	–	–	–
CC(C)c1c(P(=O)(c2ccccc2)c2ccccc2)n(C)c2ccccc12	> 100 µM (inactive)	–	–	–	–	–
COC(=O)c1ccc(C)cc1CC1Cc2ccc(C)cc2C1=O (centres undefined)	12.2 µM (inactive)	–	–	–	–	–
CC(C)[Si](OC1=C(C(=O)N(C)c2ccccc2Cl)CCCCC1)(C(C)C)C(C)C	> 100 µM (inactive)	–	–	–	–	–

SMILES	GI50 (BT-549)	GI50 (HOP-18)	GI50 (KM-20L2)	GI50 (DMS-273)	GI50 (M19-MEL)	also measured
OCC(O)CNc1ccnc2cc(Cl)ccc12 (centres undefined)	–	> 100 µM (inactive)	> 100 µM (inactive)	–	> 100 µM (inactive)	GI50 (XF498): > 100 µM (inactive); GI50 (DMS-114): > 100 µM (inactive); GI50 (SNB-78): > 100 µM (inactive)
O=c1oc2ccc(Cl)cc2cc1-c1cn2ccsc2n1	24.1 µM (inactive)	–	–	–	–	–
O=C(O/N=C1/CCCC/C1=C\c1ccccc1)c1ccc(Cl)c(Cl)c1	–	> 100 µM (inactive)	65.3 µM (inactive)	23.9 µM (inactive)	68.7 µM (inactive)	GI50 (RXF 631): 16.8 µM (inactive); GI50 (XF498): 48.8 µM (inactive); GI50 (SNB-78): 19.1 µM (inactive)
COc1cccc(/C=C2\N=C(Cl)OC2=O)c1O	–	> 100 µM (inactive)	> 100 µM (inactive)	> 100 µM (inactive)	–	GI50 (XF498): > 100 µM (inactive); GI50 (DMS-114): > 100 µM (inactive); GI50 (SNB-78): > 100 µM (inactive)
CN1CCC2(CC1)SSC1(CCN(C)CC1)S2	23.9 µM (inactive)	–	–	–	–	–
Cc1ccc(/N=C2N=C(Cl)/C(=C\c3ccccc3)N\2)cc1	> 100 µM (inactive)	–	–	–	–	–
CCCCn1c2c(n(CCCC)c1=S)-c1c(n(CCCC)c(=S)n1CCCC)S[Se][Se]S2	4.55 µM (inactive)	–	–	–	–	–
O=C(O)C1CC2(C1)CC(C(=O)O)C2 (centres undefined)	> 100 µM (inactive)	–	–	–	–	–
C/C(CCn1[nH]c(=O)ccc1=O)=N\N=C(N)N	–	> 100 µM (inactive)	> 100 µM (inactive)	> 100 µM (inactive)	> 100 µM (inactive)	GI50 (XF498): > 100 µM (inactive); GI50 (DMS-114): > 100 µM (inactive); GI50 (SNB-78): > 100 µM (inactive)
COC1OC(C)/C(=N/O)C2OC(C)(C)OC12 (centres undefined)	> 100 µM (inactive)	–	–	–	–	–
Cc1ccc(S(=O)(=O)N(CC(=O)O)c2ccccc2)cc1	–	> 100 µM (inactive)	> 100 µM (inactive)	> 100 µM (inactive)	> 100 µM (inactive)	–
COc1cc(Nc2cnc3cc(N)ccc3n2)cc(OC)c1OC	–	51.3 µM (inactive)	> 100 µM (inactive)	11.7 µM (inactive)	74.8 µM (inactive)	GI50 (XF498): 81.5 µM (inactive); GI50 (DMS-114): 65.8 µM (inactive)
CCc1n[nH]c(=O)n1/N=C/c1ccc(/C=N/n2c(CC)n[nH]c2=O)cc1	> 100 µM (inactive)	–	–	–	–	–
CC1=C[C@H](O)[C@@]2(C)[C@@H]([C@@H]1C)[C@H]1CC[C@@H]3[C@@]4(C)CC[C@H](O)C(C)(C)[C@@H]4CC[C@@]3(C)[C@]1(C)C[C@@H]2O	23.9 µM (inactive)	–	–	–	–	–
O=C(/C=C/c1ccccc1)N1CCCCC1	> 100 µM (inactive)	–	–	–	–	–
CCc1nc(N)nc(N)c1-c1ccc([N+](=O)[O-])c(NCc2ccccc2)c1	16.9 µM (inactive)	–	–	–	–	–
